From EP4786454A1, “HETEROARYL DERIVATIVE AND USE THEREOF” (priority 2023, dated 2025)
Read-outs that look alike come from different tables or passages of the source.

Experiments:
[1] = Pharmacokinetic evaluation after single intravenous and gavage administration; settings: mouse, in vivo, CD-1 mice, IV:0.5 PO:2 mg/kg
hERG potassium channels = molecular target: T1, hERG potassium channels (Homo sapiens, UniProt Q12809); assay: Automated patch-clamp (Qpatch) assay on CHO-hERG cells; assay type: cell-based
T1 construct: expressed in transfected cells; host or cells: CHO-hERG
Method: CHO-hERG cells were cultured in a 175 cm^2 culture flask. When cells grew to a density of 60 to 80%, the culture medium was removed. Cells were washed once with 7 mL of PBS (Phosphate Buffered Saline), and then 3 mL of cell dissociation reagent was added for digestion. After the digestion was completed, 7 mL of culture medium was added for neutralization, and then the mixture was centrifuged. The supernatant was aspirated, and then 5 mL of culture medium was added to resuspend the cells and ensure that the cell density was 2~5×10^6/mL.
The compound stock solution was diluted with DMSO. 10 µL of compound stock solution was added to 20 µL of DMSO solution, followed by 3-fold serial dilution to obtain 6 DMSO concentrations. 4 µL of the compound solution at each of the six DMSO concentrations was added to 396 µL of extracellular solution to achieve a 100-fold dilution to obtain six intermediate concentrations. Then, 80 µL of the compound solution at each of the six intermediate concentrations was added to 320 µL of extracellular solution to achieve a 5-fold dilution to the desired final test concentrations. […]
The electrophysiological process was recorded. […] This voltage stimulation was applied every 15 seconds, and recorded for 2 minutes. The extracellular solution was then given, and recorded for 5 minutes. […]
Assay data were analyzed by GraphPad Prism 5.0 software. […]

[2] = Pharmacokinetic evaluation after single intravenous and gavage administration; settings: mouse, in vivo, CD-1 mice, IV:1 PO:5 mg/kg
Method: Assay method: Mix a test compound with a mixture of 5% DMSO, 60% polyethylene glycol (PEG400) and 35% water, vortex and sonicate to prepare a clear solution of 0.2 mg/mL. Filter the solution through a microporous filter membrane for later use. Select the male CD-1 mice weighing 25 to 35 g, and administer a candidate compound solution to them via intravenous injection at a dosage of 1 mg/kg. After fasting, administer the candidate compound solution to them orally at a dosage of 5 mg/kg. After the administration to the animals, collect 25 µL of blood at 0.083, 0.25, 0.5, 1, 2, 4, 8, 12, and 24 hours, and place the blood in commercially available anticoagulant tubes pre-filled with EDTA-K2. Centrifuge the tubes for 10 minutes to separate the plasma, and store them at -60 °C. Determine the content of the target compound in the plasma samples by LC/MS/MS, and calculate the pharmacokinetic parameters using Phoenix WinNonlin software (Pharsight, USA).
Definition of each parameter: IV: intravenous injection; PO: oral administration; C0: instantaneous required concentration after intravenous injection; Cmax: peak plasma concentration after administration; Tmax: time required to reach the peak drug concentration after administration; T1/2: time required for plasma concentration to decrease by half; Vdss: apparent volume of distribution, which refers to the ratio constant between the amount of drug in the body and the plasma concentration when the drug reaches dynamic equilibrium in the body; Cl: clearance, which refers to the apparent volume of distribution of a drug cleared from the body per unit time; Tlast: time of the last test point; AUC0-last: area under the plasma concentration-time curve, which refers to the area enclosed by the plasma concentration curve on the time axis; F: a measure of the speed and extent to which a drug is absorbed into the blood circulation, which is an important indicator for evaluating the degree of drug absorption.
The purpose of this assay was to evaluate the pharmacokinetic behaviors after a single intravenous bolus and gavage administration of a compound, to investigate the bioavailability after the gavage administration, and to provide animal experimental data for clinical research.
CD-1 mice (male, 7 to 9 weeks old)
The pharmacokinetic characteristics of the compounds after intravenous and oral administration were assayed in rodents using a standard protocol. In the assay, a candidate compound was prepared into a clear solution and administered to mice via single intravenous and oral administration. The solvent for both intravenous and oral administration was a mixed solvent prepared with 5% DMSO, 60% PEG400, and 35% water. Four female CD-1 mice were used in this project. Two mice were administered intravenously, and plasma samples were collected at 0.083, 0.25, 0.5, 1, 2, 4, 8 and 24 h after the administration. The other two mice were administered orally via gavage, and plasma samples were collected at 0.25, 0.5, 1, 2, 4, 8 and 24 h after the administration. The plasma samples were […] at 4 °C and 3,200 × g for 10 min, and the supernatants were separated to give plasma samples. 20 times the volume of methanol solution containing internal standard was added to precipitate the proteins. After centrifugation at 12,000 × g for 15 min at 4 °C, 50 µL of the supernatant was taken and transferred to a 96-well plate, and centrifuged a second time, and the resulting supernatant was injected for analysis. The plasma concentration was quantitatively analyzed by LC-MS/MS method, and the pharmacokinetic parameters such as peak concentration (Cmax), clearance (CL), half-life (T1/2), […] (Vdss), area under the plasma concentration-time curve (AUC0-last), and bioavailability (F) were calculated.

[3] = read-out: Area under the plasma concentration-time curve AUC0-last PO
[4] = read-out: Half-life T1/2 (IV) (converted)
[5] = read-out: Peak concentration Cmax
[6] = read-out: Tissue distribution Vdss

T1 sequence (Q12809 whole entry): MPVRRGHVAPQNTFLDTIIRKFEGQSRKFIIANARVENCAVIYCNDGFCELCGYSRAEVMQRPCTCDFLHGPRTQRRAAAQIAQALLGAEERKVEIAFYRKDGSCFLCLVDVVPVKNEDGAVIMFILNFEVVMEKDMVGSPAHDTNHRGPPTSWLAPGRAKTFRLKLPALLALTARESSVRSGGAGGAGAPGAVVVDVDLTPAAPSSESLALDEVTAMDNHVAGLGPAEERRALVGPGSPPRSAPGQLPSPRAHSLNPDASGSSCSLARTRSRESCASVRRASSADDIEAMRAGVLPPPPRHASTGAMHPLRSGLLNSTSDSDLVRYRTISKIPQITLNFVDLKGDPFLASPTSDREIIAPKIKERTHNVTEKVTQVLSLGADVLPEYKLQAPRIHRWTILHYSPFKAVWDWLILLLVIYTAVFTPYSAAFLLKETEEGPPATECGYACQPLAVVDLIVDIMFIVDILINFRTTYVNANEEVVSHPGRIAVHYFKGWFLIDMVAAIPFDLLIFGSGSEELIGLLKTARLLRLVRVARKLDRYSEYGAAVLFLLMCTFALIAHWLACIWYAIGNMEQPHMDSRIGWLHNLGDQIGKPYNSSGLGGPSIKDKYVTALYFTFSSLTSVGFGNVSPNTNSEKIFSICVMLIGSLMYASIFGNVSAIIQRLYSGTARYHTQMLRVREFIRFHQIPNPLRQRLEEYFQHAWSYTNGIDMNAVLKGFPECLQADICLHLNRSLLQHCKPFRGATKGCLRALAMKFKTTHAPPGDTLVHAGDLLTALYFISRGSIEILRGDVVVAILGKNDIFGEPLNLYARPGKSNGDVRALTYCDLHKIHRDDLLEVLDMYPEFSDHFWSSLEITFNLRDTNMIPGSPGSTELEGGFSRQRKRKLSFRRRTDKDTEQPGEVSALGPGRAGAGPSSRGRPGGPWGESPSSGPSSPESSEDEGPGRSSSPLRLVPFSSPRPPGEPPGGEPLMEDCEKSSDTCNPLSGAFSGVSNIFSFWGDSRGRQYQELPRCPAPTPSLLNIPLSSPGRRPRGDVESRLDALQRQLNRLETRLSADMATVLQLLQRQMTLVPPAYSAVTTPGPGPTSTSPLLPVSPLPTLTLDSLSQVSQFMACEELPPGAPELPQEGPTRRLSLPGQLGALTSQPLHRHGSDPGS

| Structure (SMILES) | AUC(0-t) [1, 3] [µM·h] | bioavailability ([1]; read-out: Bioavailability F) [%] | clearance ([1]; read-out: Clearance CL) [mL/min/kg] | half-life [1, 4] [min] | Cmax [1, 5] [nM] | Vd [1, 6] [L/kg] | IC50 (hERG potassium channels; CHO-hERG cells, highest test concentration 40.00 µM, read-out: IC50) [µM] | AUC(0-t) [2, 3] [µM·h] | bioavailability ([2]; read-out: Bioavailability F) [%] | clearance ([2]; read-out: Clearance CL) [mL/min/kg] | half-life [2, 4] [min] | Cmax [2, 5] [nM] | Vd [2, 6] [L/kg] | IC50 (hERG potassium channels) [µM] |
| --- | --- | --- | --- | --- | --- | --- | --- | --- | --- | --- | --- | --- | --- | --- |
| CC(C)(C)CC(=O)Nc1nc2c(F)cc(C#N)cn2c1C1=CCCC1 [Compound 3] | 2.35 | 57.3 | 25.6 | 30 | 1150 | 0.94 | > 40 | – | – | – | – | – | – | – |
| CC(C)(C)CC(=O)Nc1nc2c(F)cc(C#N)cn2c1-c1ccc(OC(F)(F)F)cc1 [Compound 1] | – | – | – | – | – | – | – | 1.41 | 51.1 | 67.8 | 52.8 | 355 | 4.89 | > 40 |
